Assay results published in patent US20160355782A1, “METHOD FOR ENHANCING DIFFERENTIATION OF DOPAMINERGIC NEURONS” (Buddhist Tzu Chi Medical Foundation, priority 2015, published 2016).

Key:
[1] = system: cortical neural precursor cells (NPCs); test: TH+ cell differentiation of lentivirus-transduced (Nurr1 or GFP) cortical NPCs; type: cell-based, rat
Experimental: Cultures of neural precursor cells (NPCs) derived from cortices at E13.5 were performed as the methods known by a person skilled in the art, for example, as the protocol described by Huang et al. (2012) and carried out with some modifications. Briefly, dissected cortical tissues were mechanically triturated and plated at 5×10^4 cells on coverslips (12-mm diameter) pre-coated with 20 μg/mL fibronectin (Invitrogen)/15 μg/mL poly-L-ornithine (Sigma-Aldrich) in 24 well plates. Cells were cultured in a serum-free NPCs culture medium containing DMEMF12, 2% B27 supplement (Invitrogen), 0.6% glucose, 20 ng/mL bFGF (Sigma-Aldrich), 20 ng/mL EGF (Invitrogen), 2 μg/mL heparin (Sigma-Aldrich), 100 U/mL penicillin, and 100 μg/mL streptomycin.
TH promoter assay or lenti-virial transductions were carried out at 60%˜70% cell confluences (usually for 3 days) as described below. Cell differentiation was induced for 3 to 5 days by switching to mitogens-free DMEM/F12/N2 medium in the presence of 0.5 μM UCN. Differentiation medium was changed every other day.
For lenti-viral transduction, E13 cortical NPCs were incubated with lenti-viruses (25 multiplicity of infection) expressing Nurr1 or GFP containing poly-brene (hexadimethrine bromide, 1 μg/mL, Sigma-Aldrich) for 24 hours. After 1 day of further cell expansion in the presence of the mitogens, cells were induced to differentiate.
For immuno-cytochemistry, cells were fixed with 4% paraformaldehyde followed by blocking with PBS containing 0.4% Triton X-100, 3% normal goat serum and 2% bovine serum albumin (BSA) for 1 h at room temperature. After blocking, cells were incubated overnight at room temperature with primary antibodies. Primary antibodies were rabbit anti-UCN (1:200), mouse anti-TH (1:2000) (both from Sigma-Aldrich), goat anti-CRHR1 (1:100), rabbit anti-CRHR2 (1:250), rat anti-dopamine transporter (DAT, 1:200), chicken anti-MAP2 (1:5000) (all from Abcam, Cambridge, Mass.), rabbit anti-Nurr1 (1:100, Santa Cruz Biotechnology), mouse anti-Nurr1 (1:100, R&D Systems, Minneapolis, Minn.), rabbit anti-TH (1:1000), mouse anti-NeuN (1:200) (both from Chemicon, Temecula, Calif.), rabbit anti-acetyl-histone H3 (1:1000, Upstate Biotechnology, Lake Placid, N.Y.), rabbit anti-Foxa2 (1:500, Cell Signaling Technology), and rabbit anti-Pitx3 (1:100, Invitrogen).
For detection of dopaminergic neurons, the bound anti-TH antibody was visualized by incubation with an appropriate biotinylated secondary antibody followed by the Vectastain avidin-biotin-peroxidase (ABC) reagents (Vector Laboratories, Burlingame, Calif.) and color development with 3,3′-diaminobenzidine. The number of TH-positive neurons were counted in the entire surface area of a culture well or coverslip. For fluorescent double-labeling experiments, cells were incubated for 1 h at room temperature with rhodamine-conjugated donkey anti-mouse IgG (1:250), FITC-conjugated goat anti-rabbit IgG (1:250) or FITC-conjugated donkey anti-goat IgG (1:200) secondary antibodies (all from Jackson Immuno Research, West Grove, Pa.). Samples were counter-stained with Hoechst 33342 (5 μg/mL, Sigma-Aldrich) or DAPI (1 μg/mL), and mounted with 50% glycerol in PBS. Microscopic observations were done with a Zeiss Axiovert 200 M fluorescent microscope or a Zeiss LSM 510 META confocal imaging system (Carl Zeiss, Oberkochen, Germany). Immuno-reactive or Hoechst 33342-stained cells were counted in at least 10 random areas of each culture coverslip at a magnification of 100×.

rat TH promoter = test: Chromatin immuno-precipitation (ChIP) at the TH promoter in VM precursor cultures; type: cell-based
Experimental: VM precursor cultures were treated with 1 μM UCN for about 1 to 2 days. VM cells for ChIP from rat embryos, the pregnant rats on day 12.5 of gestation were intra-peritoneally injected with saline as control or 10 μg/kg UCN as treatment every 24 h for 3 days before sacrifice. The ventral mesencephalon from E15.5 embryos was dissected. Cells were cross-linked with 1% formaldehyde, and stored at −80° C. before use.
Chromatin immuno-precipitation (ChIP) assays were performed using SimpleChIP® Enzymatic Chromatin IP kit (Cell Signaling Technology, Beverly, Mass.) by the instruction of the kit. Briefly, cross-linked chromatin in the cells was enzymatic digested to generate fragments with a length of approximately 150-900 bp (1 to 5 nucleosomes). The chromatin was subjected to immuno-precipitation using the following antibodies: anti-Nurr1 (Santa Cruz), anti-acetyl histone H3 (Ac-H3), anti-HDAC1, anti-CoREST (all from Upstate Biotechnology), anti-MeCP2 (Chemicon,), anti-Foxa2 (Cell signaling Technology), anti-Pitx3, and IgG (both from Abcam). Immuno-precipitated DNA fragments were collected by protein G magnetic beads. DNA/protein complexes were eluted from the beads and reverse cross-linked at 65° C. for 2 h in the presence of proteinase K. Purified DNA were subjected to real-time PCR using primers specific to rat TH promoter loci (referring to Table 2). The abundance of the immuno-precipitated DNA in a sample was normalized to the amount of signal in the input DNA. The values of the control samples were set to 1.0.

[2] = SB, compared with the UCN effect

Compound | conversion of Nurr1+ cortical NPCs into DA neurons ([1]; 0.5 μM UCN, 3 days) | TH+ cells expressing the mature DA neuron-specific marker DAT ([1]; Nurr1-transduced NPCs, 0.5 μM UCN, 4 days) | TH+ cell numbers ([1]; cortical NPCs transduced with GFP, 0.5 μM UCN, 3 days) | TH+ cell numbers ([1]; cortical NPCs transduced with Nurr1, 0.5 μM UCN, 3 days) | Nurr1 protein occupancy at the TH promoter (rat TH promoter; 1 μM UCN, 2 days) | CoREST binding in the TH promoter regions (rat TH promoter; UCN) | Foxa2 occupancy at Nurr1 binding sites of TH promoter (rat TH promoter; UCN) | HDAC1 recruitment at the TH promoter (rat TH promoter; UCN) | histone H3 acetylation at TH promoter regions (rat TH promoter; UCN) | MeCP2 recruitment to the TH promoter (rat TH promoter; UCN, Nurr1-binding sites and repeated CpGs) | TH+ cell numbers ([1]; Nurr1-transduced cortical NPCs, SB, 3 days) | Nurr1 recruitment at the TH promoter (rat TH promoter; [2]) | histone acetylation at the TH promoter (rat TH promoter; [2])
Urocortin [UCN] | increased the conversion | almost all of TH^+ cells | do not change | increase in TH^+ cell numbers | significantly increased | decreased CoREST binding | increases | significantly reduced | significantly increased | significantly reduced | – | – | –
CCCC(=O)[O-].[Na+] [SB, sodium butyrate, reference compound] | – | – | – | – | – | – | – | – | – | – | increase in TH^+ cell numbers | mimicked | mimicked
